The values that follow are results of earlier work, collected in patent US20240398765A1, “TRANSDERMAL THERAPEUTIC SYSTEM FOR THE TRANSDERMAL ADMINISTRATION OF TIZANIDINE” (LTS LOHMANN THERAPIE-SYSTEME AG, priority 2021, published 2024).

The structures appear in SMILES notation. Structures can show the parent of a compound that is named as a salt.

The conditions of the series: background statement, no test described.

For `Clc1ccc2nsnc2c1NC1=NCCN1` [tizanidine in the form of its free base, 5-chloro-4-(2-imidazolin-2-ylamino)-2,1,3-benzothiadiazole], the “permeation through the skin” value is listed as “slightly permeates through the skin”.
As for `Clc1ccc2nsnc2c1NC1=NCCN1` [tizanidine in the form of its hydrochloride], the “permeation through the skin” value was “does not permeate through the skin”.
